From patent US20260347319A1, “YAP/TAZ-TEAD ONCOPROTEINS INHIBITORS” (BridGene Biosciences, Inc., priority 2022, published 2026)
Like-named read-outs stand apart in the source and are kept apart here.

Tests used:
Assay type in all cases: cell-based
[1] = tested on: TEAD1; assay: MCF-7 TEAD1-luciferase reporter assay (MCF7-TEAD-Luc); conditions: MCF7 cells, overnight; for IC50: Homo sapiens; for TEAD1-Luc MCF7: Max Inhibition: % of DMSO-treated control
In short: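 MCF7 cells with a TEAD luciferase reporter were seeded at 10,000 per well, grown 24 hours at 37° C, then treated overnight with serially diluted compound. Luciferase signal was normalized as % inhibition relative to DMSO controls, and IC50 came from a four-parameter fit.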

[2] = target: T1, TEAD2 (Homo sapiens, UniProt Q15562); assay: Palmitoylation assay, TEAD2 (HEK293T cells); set-up: unspecified tag; expressed in transfected cells; host or cells: HEK293T; conditions: 3 um compound, 24 hours
T1 sequence (Q15562 whole entry): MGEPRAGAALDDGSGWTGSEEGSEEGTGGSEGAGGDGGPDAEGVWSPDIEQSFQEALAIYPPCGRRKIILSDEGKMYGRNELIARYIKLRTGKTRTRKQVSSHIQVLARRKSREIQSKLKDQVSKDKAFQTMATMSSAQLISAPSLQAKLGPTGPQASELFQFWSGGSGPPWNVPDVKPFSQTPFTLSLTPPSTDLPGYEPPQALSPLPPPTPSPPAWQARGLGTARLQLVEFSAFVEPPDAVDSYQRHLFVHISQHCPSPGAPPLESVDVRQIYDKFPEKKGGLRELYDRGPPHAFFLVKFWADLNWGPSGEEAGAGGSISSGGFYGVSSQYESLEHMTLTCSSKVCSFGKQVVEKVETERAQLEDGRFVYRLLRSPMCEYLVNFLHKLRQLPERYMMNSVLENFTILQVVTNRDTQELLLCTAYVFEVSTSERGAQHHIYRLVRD
Procedure: (§1) Tagged TEAD constructs were cloned in pTriEx-6 (Novagen #71559) and transiently transfected into HEK293T cells for 24 hours. Then cells were treated with compounds for 24 hours, or treated with compounds plus 25 μM alkyne palmitic acid (for palmitoylation assay), and cell pellets were collected. Cells were lysed in lysis Buffer (100 mM Tris-HCl, 150 mM NaCl, 1% Triton, 5 mg/mL protease inhibitor cocktail), centrifuged for 10 min at 15000 g, TEAD proteins were pulled down and subjected to click-chemistry with TAMRA azide (Click Chemistry Tools #AZ109) to label compound-modified protein. Protein bands were separated by SDS-gel electrophoresis, target bands at expected molecular size were visualized using BioRad ChemiDoc Imaging system, band intensities were quantified by Image Studio.

[3] = target: T2, TEAD4 (Homo sapiens, UniProt Q15561); assay: ELISA assay in H226 cells, TEAD4; set-up: endogenous in cells; host or cells: H226; conditions: overnight
T2 sequence (Q15561 whole entry): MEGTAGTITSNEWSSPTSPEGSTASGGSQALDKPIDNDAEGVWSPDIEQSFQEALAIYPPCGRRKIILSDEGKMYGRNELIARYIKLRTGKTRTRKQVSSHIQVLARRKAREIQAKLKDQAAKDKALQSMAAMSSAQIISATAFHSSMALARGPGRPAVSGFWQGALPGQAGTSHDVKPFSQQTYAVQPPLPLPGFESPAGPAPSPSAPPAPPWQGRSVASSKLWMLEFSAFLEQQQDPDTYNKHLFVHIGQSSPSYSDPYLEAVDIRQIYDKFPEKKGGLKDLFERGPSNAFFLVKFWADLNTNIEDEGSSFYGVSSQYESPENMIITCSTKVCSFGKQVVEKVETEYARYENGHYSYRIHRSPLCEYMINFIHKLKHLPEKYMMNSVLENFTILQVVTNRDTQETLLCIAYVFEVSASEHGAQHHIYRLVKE
Procedure: (§2) ELISA: 750k cells were plated per well of 6-well plate for 24 hours, treated with compounds overnight, cells were then lysed in lysis Buffer with 5 mg/mL protease inhibitor (Cell Signaling #9803), centrifuged at 12000 g for 5 min. Cell lysates were normalized to 2 mg/mL for subsequent assays. A 96-well assay plate (Corning #3690) was coated with TEAD antibodies (anti-TEAD1: Cell Signaling #12292, 1:100; anti-TEAD2: LSBio #LS-C101693-100, 1:50; anti-TEAD3: Abcam #ab75192, 1:100; anti-TEAD4: Abcam #ab58310, 1:400) overnight at 4° C. Plates were washed with TBST (Thermo Fisher #28360) for 3 times, blocked in 100 μL blocking buffer (2% BSA-TBST, Sigma #A7030) for 1 hour at room temperature. 50 μL cell lysates were incubated overnight at 4° C. with shaking. The next day, plates were washed with TBST three times, incubated with 1:125 anti-YPA-HRP (Cell Signaling #15028S) for 4 hours at 4° C., followed by 3× washing in TBST, then incubated in HRP substrate (Thermo Fisher #34021) for 10 min at room temperature, reaction was stopped by TMB stop solution (Thermo Fisher #N600). Signal was read at wavelength 450 nm.

[4] = target: T1, TEAD2; assay: ELISA assay in H226 cells, TEAD2; set-up: endogenous in cells; host or cells: H226
Procedure: as §2

[5] = tested on: TEAD1; assay: Palmitoylation assay, TEAD1 (HEK293T cells); conditions: 3 um compound, 24 hours
Procedure: as §1

[6] = tested on: TEAD1; assay: ELISA assay in H226 cells, TEAD1; conditions: Homo sapiens, NCI-H226, overnight
Procedure: as §2

[7] = tested on: H2052 cells; assay: Cell proliferation and viability assay (CPA) in H2052 cells; conditions: for IC50: Homo sapiens, NCI-H2052, read-out: CPA H2052 IC50 Ave
Procedure: (§3) Compound potency and efficacy in inhibiting cell proliferation and viability was assessed in multiple cell lines. For example, NCI-H226 cells (ATCC #CRL-5826) were seeded at 2000 cells in 200 μL medium per well of a 96-well plate (Corning #3610) and incubated at 37° C. for 24 hours, then treated with serial diluted compounds for up to 6 d. Viable cells were measured by CellTiter-Glo 2.0 Cell Viability Assay (Promega #G9243), and the luminescence signal was read using an EnSight Multimode plate reader (PerkinElmer, model 9MLDHH34000000, integration time 100 ms) with Kaleido 3.0. software. For data analysis, dose-dependent curves were plotted as “inhibition” (% of DMSO-treated control wells), and were fitted by four-parametric model in GraphPad Prism to obtain IC50 values.
(§4) Alternatively, cells were plated at 2000 cells in 200 μL medium per well of a 96-well plate (Corning #3585) overnight, treated with compound for 7 days, cell density images taken by Incycte S3 live cell analysis instrument (Sartorius) every 24 hours at the same time. Images were analyzed by Incucyte's AI-driven software to get C “% confluence” for every image. Dose-dependent curves were plotted as “% inhibition” (% o of DMSO-treated control wells) and were fitted by four-parametric model in GraphPad Prism to obtain IC50 values.

[8] = target: T3, TEAD3 (Homo sapiens, UniProt Q99594); assay: ELISA assay in H226 cells, TEAD3; set-up: endogenous in cells; host or cells: H226
Procedure: as §2
Target sequence in this assay (Q99594 2-435 limits assumed): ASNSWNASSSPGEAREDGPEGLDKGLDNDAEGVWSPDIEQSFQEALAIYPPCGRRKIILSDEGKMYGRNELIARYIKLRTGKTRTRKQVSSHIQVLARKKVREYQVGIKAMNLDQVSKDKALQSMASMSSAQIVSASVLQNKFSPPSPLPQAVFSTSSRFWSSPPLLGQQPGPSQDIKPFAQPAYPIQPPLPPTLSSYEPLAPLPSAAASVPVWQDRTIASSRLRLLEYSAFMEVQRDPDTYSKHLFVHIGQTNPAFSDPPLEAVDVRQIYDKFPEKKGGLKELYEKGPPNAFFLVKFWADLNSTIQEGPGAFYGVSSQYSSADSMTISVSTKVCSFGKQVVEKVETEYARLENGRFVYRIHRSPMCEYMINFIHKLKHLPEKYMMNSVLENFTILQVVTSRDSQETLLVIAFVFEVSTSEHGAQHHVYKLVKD

[9] = tested on: NCI-H226 cells; assay: Cell proliferation and viability assay (CPA) in NCI-H226 cells; conditions: up to 6 d; for IC50: Homo sapiens, 144 h, read-out: CPA NCI-H226 IC50 Ave
Procedure: Compound potency and efficacy in inhibiting cell proliferation and viability was assessed in multiple cell lines. For example, NCI-H226 cells (ATCC #CRL-5826) were seeded at 2000 cells in 200 μL medium per well of a 96-well plate (Corning #3610) and incubated at 37° C. for 24 hours, then treated with serial diluted compounds for up to 6 d. Viable cells were measured by CellTiter-Glo 2.0 Cell Viability Assay (Promega #G9243), and the luminescence signal was read using an EnSight Multimode plate reader (PerkinElmer, model 9MLDHH34000000, integration time 100 ms) with Kaleido 3.0. software. For data analysis, dose-dependent curves were plotted as “inhibition” (% of DMSO-treated control wells), and were fitted by four-parametric model in GraphPad Prism to obtain IC50 values. […]

[10] = target: T3, TEAD3; assay: Palmitoylation assay, TEAD3 (HEK293T cells); set-up: unspecified tag; expressed in transfected cells; host or cells: HEK293T; conditions: 3 um compound, 24 hours
Procedure: as §1
Target sequence in this assay (Q99594 whole entry): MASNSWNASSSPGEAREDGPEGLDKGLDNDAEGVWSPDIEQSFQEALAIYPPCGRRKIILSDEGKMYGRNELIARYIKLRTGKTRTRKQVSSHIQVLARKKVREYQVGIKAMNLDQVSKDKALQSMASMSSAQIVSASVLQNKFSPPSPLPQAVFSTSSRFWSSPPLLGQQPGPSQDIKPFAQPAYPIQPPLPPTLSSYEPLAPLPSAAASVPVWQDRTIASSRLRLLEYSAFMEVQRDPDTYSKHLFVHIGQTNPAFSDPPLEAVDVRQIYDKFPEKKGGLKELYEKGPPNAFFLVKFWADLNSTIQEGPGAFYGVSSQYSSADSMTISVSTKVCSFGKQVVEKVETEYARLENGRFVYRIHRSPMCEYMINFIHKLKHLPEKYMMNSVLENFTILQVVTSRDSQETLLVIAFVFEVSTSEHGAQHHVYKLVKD

[11] = target: T2, TEAD4; assay: Palmitoylation assay, TEAD4 (HEK293T cells); set-up: unspecified tag; expressed in transfected cells; host or cells: HEK293T; conditions: 3 um compound, 24 hours
Procedure: as §1

[12] = tested on: NCI-H226 cells; assay: Cell proliferation and viability assay (CPA) in NCI-H226 cells; conditions: up to 6 d
Procedure: as §3, §4

Structure (SMILES) | IC50 [1] | TEAD1-Luc MCF7: Max Inhibition [1] | TEAD2 Inh (palmitoylation) [2] | IC50 [3] | IC50 ([4]; overnight) | TEAD1 Inh (palmitoylation) [5] | IC50 [6] | CPA H2052 Max Inh Ave [7] | IC50 [7] | IC50 ([8]; overnight) | IC50 [9] | CPA NCI-H226 Max Inh Ave [9] | TEAD3 Inh (palmitoylation) [10] | TEAD4 Inh (palmitoylation) [11] | IC50 [4] | IC50 ([12]; Homo sapiens, 144 h, read-out: CPA NCI-H226 IC50 Ave) | CPA NCI-H226 Max Inh Ave [12] | IC50 [8]
C=CC(=O)N1CC[C@H](/C=C/c2ccc(C(F)(F)F)cc2)C1 (single isomer, unassigned) [Example 10] | ≤ 10 nM | A (A ≥ 75%) | 57% | 1010 nM | 89 nM | 94% | 13 nM | B (75% > B ≥ 50%) | ≤ 100 nM | 7.2 nM | ≤ 100 nM | B (75% > B ≥ 50%) | 98% | 52% |  |  |  | 
C=CC(=O)N1C[C@@H](/C=C/c2ccc(C(F)(F)F)cc2)[C@H](Nc2ncccn2)C1 (single isomer, unassigned) [Example 83] | 10 to 100 nM | A (A ≥ 75%) | 54% | 219 nM | 17.7 nM | 93% | 66.4 nM |  |  | 107 nM |  |  | 90% | 52% |  |  |  | 
C=CC(=O)N1CC(/C=C/c2ccc(C(F)(F)F)cc2)C1 [Example 15] | ≤ 10 nM | A (A ≥ 75%) | 80% |  |  | 97% | 14 nM | B (75% > B ≥ 50%) | ≤ 100 nM |  |  |  | 98% | 80% | 179 nM | 100 to 500 nM | B (75% > B ≥ 50%) | 4 nM
C=CC(=O)N1CCC(C#Cc2ccc(C(F)(F)F)cc2)C1 (stereo not drawn) [Example 38, 1-(3-((4-(trifluoromethyl)phenyl)ethynyl)pyrrolidin-1-yl)prop-2-en-1-one] | ≤ 10 nM | A (A ≥ 75%) | 69% | 15.5 nM | 3.4 nM | 93% | 8.7 nM | B (75% > B ≥ 50%) | ≤ 100 nM | 5.6 nM | ≤ 100 nM | B (75% > B ≥ 50%) | 95% | 71% |  |  |  | 
